The text below walks through data of US20170007561A1, “CONTEMPORANEOUS, HETEROGENEOUSLY-ORIENTED, MULTI-TARGETED THERAPEUTIC MODIFICATION AND/OR MODULATION OF DISEASE BY ADMINISTRATION OF SULFUR-CONTAINING, AMINO ACID-SPECIFIC SMALL MOLECULES” (BioNumerik Pharmaceuticals, Inc., priority 2014, published 2017).

Values joined by “and” are separate entries in the source; they are usually repeats but may differ in a detail not shown here. Identical values can stand only once. “Also recorded” adds a separate entry of the source. Like-named read-outs stand apart in the source and are kept apart here.

Data set [1] has as its target T1, Mesenchymal Epithelial Transition (MET) Factor Kinase (Homo sapiens, UniProt P08581).
T1 construct: the kinase domain of MET (residues 956-end) was used in these experiments; GST (N); purchased SignalChem M52-18G-10; host or cells: Sf9
Briefly: MET kinase activity (summary Table 27). The class given is biochemical.

The next data set addresses γ-Glutamyltranspeptidase (Homo sapiens, UniProt P19440). As to the kind of experiment: γ-Glutamyltranspeptidase activity (summary Table 27). The class given is biochemical.
For data set [2], the target named is T2, recombinant human farnesyltransferase (Homo sapiens, UniProt P49354+P49356).
T2 construct: purchased Abcam
T2 sequence (P49356 whole entry, one chain of several): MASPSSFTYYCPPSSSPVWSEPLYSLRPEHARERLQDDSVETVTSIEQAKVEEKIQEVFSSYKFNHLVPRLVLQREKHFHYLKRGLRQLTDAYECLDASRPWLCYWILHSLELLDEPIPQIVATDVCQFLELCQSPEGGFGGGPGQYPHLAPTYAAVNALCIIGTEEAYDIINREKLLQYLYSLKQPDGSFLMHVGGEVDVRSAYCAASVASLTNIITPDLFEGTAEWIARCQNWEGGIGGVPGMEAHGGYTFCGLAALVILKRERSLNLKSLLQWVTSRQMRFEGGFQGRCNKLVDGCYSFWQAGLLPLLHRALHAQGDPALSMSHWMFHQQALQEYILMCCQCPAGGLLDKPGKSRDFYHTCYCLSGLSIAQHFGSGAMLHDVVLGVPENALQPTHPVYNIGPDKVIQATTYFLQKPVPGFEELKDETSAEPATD
As to the kind of experiment: Farnesyltransferase Dansyl-GCVLS fluorescence assay. The class given is biochemical. Here is the method:
Tavocept-inhibited human farnesyltransferase-mediated transfer of farnesylpyrophosphate to the cysteine residue in a danyslated peptide substrate of sequence glycine-cysteine-valine-leucine-serine (designated—Dansyl-GCVLS) in vitro. See, FIG. 79. The assay reactions contained 25 nM recombinant human farnesyltransferase (Abcam), 10 μM farnesylpyrophosphate (SigmaAldrich), 3 μM Dansyl-GCVLS (NeoBioScience) in Tris buffer (50 mM, pH 7.5) containing 5 mM MgCl2, 10 μM ZnCl2, and 0.2% octyl-β-D-glucopyranoside. Total assay volumes were 50 μL and the reactions were initiated by the addition of FTase (5 μL of 250 nM stock was added to 45 μL of assay components listed above). The excitation wavelength was 340 nm (a 340 nm filter with 25 nm bandpass) and the emission wavelength was […] (505 nm filter with 20 nm bandpass) and the assay temperature was 25° C. Progress curves of the transfer of the farnesylpyrophosphate to the Dansyl-GCVLS substrate are shown in FIG. 79, Panel A and relative rates of the progress curve were determined and are shown in FIG. 79, Panel B.

The test system of a further data set is human cancer cell lines. Briefly: Paclitaxel- and platinum-induced cytotoxicity. The class given is cell-based. An excerpt: (§1) Tavocept mediates the non-enzymatic xenobiotic modification of sulfur-containing amino acid residues (e.g., cysteine) on proteins. As an engineered, non-naturally occurring agent (i.e., xenobiotic), Tavocept is autocatalytic and requires no protein cofactor to cause the xenobiotic modification of cysteine, but appears to be specific for cysteine residues located within a particular structural context (i.e., not all cysteines in a protein are so modified). Tavocept-mediated, xenobiotic modification represents a novel mechanism of action for a cancer treating agent and can be compared to a degree with post-translational modifications of cysteine residues in proteins (see, Table 3, below).

Another data set addresses T3, FTase (Homo sapiens, UniProt P49354+P49356).
T3 construct: purchased Abcam
Briefly: FTase-mediated farnesylation of Dansyl-GCVLS peptide. The class given is biochemical. From the text: Panel A: Progress curve showing FTase-mediated farnesylation of Dansyl-GCVLS peptide. Panel B: Relative rates from reactions shown in Panel A.

The conditions of data set [3]: cited from earlier work.
For data set [4], the target named is T4, Trx (E13K, D16K, E95K, E103K) (Homo sapiens, UniProt P10599, D16K/E103K/E13K/E95K).
T4 construct: 6xHis with TEV site (N, cleaved yes); made in house; host or cells: E. coli BL21(DE3)
T4 sequence (P10599 1-105 E13K/D16K/E95K/E103K): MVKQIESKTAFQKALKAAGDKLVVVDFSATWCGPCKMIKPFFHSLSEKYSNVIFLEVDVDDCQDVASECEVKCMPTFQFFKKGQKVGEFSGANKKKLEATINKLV
As to the kind of experiment: X-ray crystallography of Tavocept-derived mesna adduct on Trx. The class given is binding. The settings on record: Tavocept 40 mM. The method, then: Adduct was prepared as described above with some modifications designed to increase the likelihood of success in crystallization of the protein. […] This reaction was incubated for 1 hour at 30° C. followed by overnight incubation at 4° C. […] Aliquots of this solution were analyzed by ESI LC-MS to confirm the presence of adduct(s) prior to initiation of crystallization experiments.
These initial broad screens produced crystals under a wide range of conditions (data not shown) and the screens used included: (i) PEGION, CRYSTALS HT, and PEGRX (Hampton Research) and (ii) JCSG and BASIC (JENA Biosciences). Multiple rounds of optimization were completed and included fine screens, varying the protein concentration and varying the protein to reservoir ratios to obtain diffraction quality crystals. In the Trx pH 9.0/8.5 structure (adduct formed at pH 9.0, crystals grown at pH 8.5), the best crystals were obtained in 20% ethanol, 0.1 M Tris (at 60 mg/mL Trx protein) and diffracted to 2.5 Å (C2 space group). In Trx pH 9.0/7.0 (adduct formed at pH 9.0, crystals grown at pH 7.0), the best crystals were obtained in 20% PEG3350, 0.2 M KCl (60 mg/mL Trx protein) and diffracted to 2.8 Å (C2 space group). In Trx pH 7.0/7.0 (adduct formed at pH 7.0, crystals grown at pH 7.0), the best crystals were obtained in 28% PEG3350, 0.2M KCl (160 mg/mL Trx protein) and diffracted to 1.85 Å resolution (P21 space group).
The solution obtained was consistent with four molecules in the crystal asymmetric unit. […] Molecules C and D were substantially rebuilt and the Tavocept-derived mesna adduct added after protein rebuilding was complete. The structure solution was supported by contiguous electron density for the entire chain trace of each molecule, landmark side chain density features matching the amino acid sequence including cysteines, absence of phi-psi violations, and final R/Rfree values in the normal range. […] For the Trx pH 9.0/8.5 structure, residual density observed near Cys69 of molecule A was modeled as a Tavocept-derived mesna adduct in a dual conformation. […]

The test system of data set [5] is human breast, ovarian and lymphoma cancer cell lines. Briefly: Paclitaxel induced apoptosis (PARP cleavage, Bcl-2 phosphorylation, DNA laddering). The class given is cell-based.
Excerpt: as §1

For data set [6], the target named is human peroxiredoxin 4 (PRX4) (Homo sapiens, UniProt Q13162). As to the kind of experiment: X-ray crystallography and Mass Spectrometry of Prx 4 with Tavocept-derived mesna. The settings on record: 40 mM Tavocept; MS and X-ray.
human peroxiredoxin 4 (PRX4), sequence (Q13162 79-271 limits assumed): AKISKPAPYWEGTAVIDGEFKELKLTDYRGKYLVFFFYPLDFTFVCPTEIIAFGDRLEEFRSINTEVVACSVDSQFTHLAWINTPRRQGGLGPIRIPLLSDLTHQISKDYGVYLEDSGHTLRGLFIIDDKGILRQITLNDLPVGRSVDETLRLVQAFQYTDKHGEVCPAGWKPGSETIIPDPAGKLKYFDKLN

T1 sequence (P08581 956-1390 limits assumed): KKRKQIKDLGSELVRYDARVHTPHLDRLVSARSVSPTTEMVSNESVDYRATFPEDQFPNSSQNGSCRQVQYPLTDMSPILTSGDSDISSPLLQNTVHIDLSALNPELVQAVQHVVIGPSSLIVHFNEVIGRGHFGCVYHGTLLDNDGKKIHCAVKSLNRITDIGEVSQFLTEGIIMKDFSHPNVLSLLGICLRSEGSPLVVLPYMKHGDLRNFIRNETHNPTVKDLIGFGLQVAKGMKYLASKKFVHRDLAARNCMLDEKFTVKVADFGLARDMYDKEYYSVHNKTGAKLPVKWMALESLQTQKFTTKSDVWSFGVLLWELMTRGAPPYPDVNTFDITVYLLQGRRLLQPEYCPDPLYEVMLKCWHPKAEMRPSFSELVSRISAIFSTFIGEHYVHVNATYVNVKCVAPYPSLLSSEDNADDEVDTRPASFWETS
γ-Glutamyltranspeptidase, sequence (P19440 whole entry): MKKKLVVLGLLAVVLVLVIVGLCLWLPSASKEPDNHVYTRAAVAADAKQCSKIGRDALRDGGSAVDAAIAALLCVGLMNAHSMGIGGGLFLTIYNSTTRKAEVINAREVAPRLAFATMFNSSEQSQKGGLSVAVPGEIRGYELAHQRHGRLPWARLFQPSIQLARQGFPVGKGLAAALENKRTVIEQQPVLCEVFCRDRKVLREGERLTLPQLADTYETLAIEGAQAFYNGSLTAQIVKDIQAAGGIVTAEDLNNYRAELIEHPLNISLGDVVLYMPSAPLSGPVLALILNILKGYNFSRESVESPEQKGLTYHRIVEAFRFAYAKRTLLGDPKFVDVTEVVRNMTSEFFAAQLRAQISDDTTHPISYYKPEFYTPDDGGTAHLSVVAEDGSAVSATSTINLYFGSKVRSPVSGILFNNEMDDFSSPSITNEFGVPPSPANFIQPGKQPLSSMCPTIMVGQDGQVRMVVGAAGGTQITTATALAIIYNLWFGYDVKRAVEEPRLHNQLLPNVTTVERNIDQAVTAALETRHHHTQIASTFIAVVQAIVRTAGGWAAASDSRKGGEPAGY
T3 sequence (P49356 whole entry, one chain of several): as the sequence (P49356 whole entry, one chain of several) above

The Cmax is the peak of the concentration-time curve. In the case of `O=S(=O)([O-])CCSSCCS(=O)(=O)[O-].[Na+].[Na+]` [Tavocept, disodium 2,2′-dithio-bis-ethane sulfonate], the “Cellular consequence of BNP7787-modification and/or modulation: MET” value in data set [1] is “Modification of non-active site cysteine(s) resulting in enzyme”. Also, the “Cellular consequence of BNP7787-modification and/or modulation: γ-glutamyltranspeptidase” value at γ-Glutamyltranspeptidase was “can inhibit γ-glutamyltranspeptidase and aminopeptidase N enzyme”. Moreover, in data set [2], the Inhibition of farnesylation entry was “inhibits farnesylation in a concentration-dependent manner”. In addition, the “interference with paclitaxel- and platinum-induced cytotoxicity” value in the data set with human cancer cell lines is reported as “not to interfere”. Further, on FTase, the “effect on FTase activity” value is reported as “Inhibition of FTase activity”. Besides, the Tavocept in plasma in data set [3] (41 g/m^2 Tavocept) was about 14 mM. Also, the “concentrations of Tavocept achieved in the clinic” value in data set [3] (as high as) was at most 18000 µM. Besides, the “pharmacologically achievable plasma levels” value in [3] (doses of 18.4 g/m^2 and higher) is given as at least 8 mM. Also, the “Plasma concentrations achieved in clinical trials” value in [3] (in vivo) was 10000 µM. The pharmacologically achievable concentrations in data set [3] (in vivo) is 6-10 mM. Further, the Cmax in [3] (read-out: Cmax values in plasma, dose of 18.4 g/m^2) is ≥ 10000 µM and ~10000 µM; in data set [3] (read-out: Cmax values in plasma, doses as high as 41 g/m^2, typical) it was about 10000 µM; in data set [3] (read-out: typical Cmax values, administered at 18 g/m^2), about 10000 µM. Further, the “Mesna adduct site on Trx by X-ray” value in data set [4] (Trx pH 7.0/7.0 structure) is “clearly visible on Cys69 in both molecules A and B”; in [4] (Trx pH 9.0/7.0 structure) it was “clearly visible on both Cys69 and Cys62 in both molecules A and B”; in [4] (Trx pH 9.0/8.5 structure), “clearly visible on Cys69 in both molecules A and B”. Further, the “interference with paclitaxel induced apoptosis” value in data set [5] is recorded as “does not interfere”. Besides, in data set [6], the “Prx 4 cysteine residues carrying Tavocept-derived mesna moiety” value is recorded as “Cys124; also recorded: cysteine 124 (and possibly cysteine 245)”.
